In ChEMBL document CHEMBL6127019, “Exploitation of the nitro- and/or 4-Trifluoromethyl-decorated phenyl fragment to develop small inhibitors of Alpha-Syn fibril aggregation” (Bioorg Med Chem Lett, 2024):
Calls of active or inactive are those of the source. The calls are words filed in the database; no cut-off is given here.

These compounds were tested against Alpha-synuclein (Homo sapiens) (UniProt P37840) (assay: Inhibition of alpha alpha-synuclein (unknown origin) fibril aggregation assessed as reduction in TH-T fluorescent signal at 100 uM measured after 5 to 40 hrs by ThT fluorescence assay relative to control). Settings: time 5-40 hrs.

SMILES	inhibition [%]
O=[N+]([O-])c1cc(C(F)(F)F)cc([N+](=O)[O-])c1Nc1cccc(O)c1	68
O=[N+]([O-])c1cc(C(F)(F)F)cc([N+](=O)[O-])c1F	57

What follows are compounds tested against Alpha-synuclein (Homo sapiens) (UniProt P37840) (assay: Inhibition of alpha alpha-synuclein (unknown origin) fibril aggregation assessed as reduction in TH-T fluorescent signal at 100 uM measured after 5 to 40 hrs by ThT fluorescence assay). Settings: time 5-40 hrs.

inhibition	SMILES
inactive	O=[N+]([O-])c1cc(C(F)(F)F)cc([N+](=O)[O-])c1NC1=NN(c2ccccc2)CC1
inactive	Cc1cc(C)nc(Sc2c([N+](=O)[O-])cc(C(F)(F)F)cc2[N+](=O)[O-])n1
Active	Cn1nnnc1Sc1c([N+](=O)[O-])cc(C(F)(F)F)cc1[N+](=O)[O-]
inactive	COc1cccc(Nc2c([N+](=O)[O-])cc(C(F)(F)F)cc2[N+](=O)[O-])c1
inactive	O=[N+]([O-])c1cc(C(F)(F)F)cc([N+](=O)[O-])c1NCCCO
inactive	O=C(COc1ccccc1)Nc1c([N+](=O)[O-])cc(C(F)(F)F)cc1[N+](=O)[O-]
inactive	Cc1cc(C)c(Nc2c([N+](=O)[O-])cc(C(F)(F)F)cc2[N+](=O)[O-])c(C)c1
inactive	Cc1cccc(N2CCC(Nc3c([N+](=O)[O-])cc(C(F)(F)F)cc3[N+](=O)[O-])=N2)c1
inactive	O=[N+]([O-])c1cc(C(F)(F)F)cc([N+](=O)[O-])c1Sc1c(Cl)c(Cl)nc(Cl)c1Cl
inactive	O=[N+]([O-])c1cc(C(F)(F)F)cc([N+](=O)[O-])c1N1CCN(CCO)CC1
inactive	O=[N+]([O-])c1cc(C(F)(F)F)cc([N+](=O)[O-])c1Nc1ccc(F)cc1

More lines, now with the values behind:

SMILES	inhibition
O=C(O)CSCc1ccc(C(F)(F)F)cc1	inactive
O=[N+]([O-])c1cc(C(F)(F)F)cc([N+](=O)[O-])c1N1CCN(c2ncnc3ccccc23)CC1	inactive
Cn1nnnc1SCc1ccc(C(F)(F)F)cc1	inactive
Cn1cnnc1SCc1ccc(C(F)(F)F)cc1	inactive
N#Cc1c(C(F)(F)F)c([N+](=O)[O-])c(-c2cccc([N+](=O)[O-])c2)[nH]c1=O	Active
Cn1nnnc1SCc1ccccc1[N+](=O)[O-]	inactive
O=[N+]([O-])c1cc([N+](=O)[O-])c(Nc2ccccc2)c(C(F)(F)F)c1	inactive
